{"source": "patent US20230390273A1", "about": "“4-PHENYL-TETRAHYDROPYRIDINE DERIVATIVES FOR TREATING HEARING DISEASES” (CILCARE DEV, priority 2021, published 2023)", "key": {"male Wistar rats": {"test_system": "male Wistar rats", "assay": "ABR/DPOAE assessment, noise-induced permanent hearing loss, immediate trans-tympanic treatment (Example 6)", "format": "in vivo", "conditions": "T0+28 days, versus traumatized animals untreated or vehicle; treatment 2 hours and 8 days post-noise", "experimental": "Fifty male Wistar rats were selected and distributed to treatment (“traumatized paliroden” group and “traumatized xaliproden” group) and control groups (“sham” group, “traumatized” group and “traumatized vehicle” group), each group comprising at least 9 rats at the end of the study. Randomization was performed using the ABR threshold in the left ear at 16 kHz as a criterium. The “sham” group consists in rats (n=11) that received neither noise exposure nor trans-tympanic injection. The “traumatized” group consists of rats (n=9) that received noise exposure only and no treatment. The “traumatized vehicle” group consists in rats (n=10) that received noise exposure and trans-tympanic injection in both ears of 30 μL of placebo (a composition comprising Poloxamer 407 (7,2% w/w), Poloxamer 188 (8% w/w) and Cremophor EL® (20% w/w) in phosphate buffer pH=7.4, the percentages being expressed relative to the total weight of the composition) between the eardrum and the round window by means of a needle which crosses the eardrum, 4 hours after the start of the noise exposure (i.e. injection of placebo at T0+4 hours, thus 2 hours after the end of the noise exposure) and 8 days post-noise exposure, under isoflurane anesthesia. […]"}, "male CBA/CaJ mice": {"test_system": "male CBA/CaJ mice", "assay": "ABR Wave I amplitude after noise-induced temporary hearing loss (Example 8)", "format": "in vivo", "experimental": "Twelve male CBA/CaJ mice were selected and evenly distributed to treatment and control groups, each group comprising 4 mice at the end of the study. Randomization was performed using the ABR threshold in the left ear at 16 kHz as a criterium. The “sham” group consists in mice (n=4) that received neither noise exposure nor trans-tympanic injection. The “Traumatized” group consists in mice (n=4) that received noise exposure only. The “traumatized paliroden” group consists in mice (n=4) that received noise exposure and trans-tympanic injections of a composition comprising paliroden (fumarate salt), corresponding to composition 4P described in Example 2.\nAll animals (except sham group) received a bilateral noise exposure at a noise band of 8-16 kHz at 95 dB SPL RMS during 2 hours (from time T0 to time T0+2 hours) in awake conditions.\nFive microliters of a composition comprising paliroden as active agent were administered once in both ears of each mice of the treatment groups (5 μL per ear) via trans-tympanic administration by injection between the eardrum and the round window by means of a needle which crosses the eardrum, 24 hours post noise exposure, under isoflurane anesthesia. […]"}, "[1]": {"assay": "Solubility of paliroden and xaliproden in trans-tympanic compositions and in water (Example 2)", "format": "physicochemical", "experimental": "Eight compositions compatible with trans-tympanic injections were prepared: four thermoreversible gel compositions and four lipid-based mucoadhesive solutions. These eight compositions were prepared both with paliroden fumarate as active agent, and with xaliproden hydrochloride as active agent. The solubility of respectively paliroden and xaliproden in the compositions was measured."}}, "note": "Counter-ions that a name gives are not always drawn.", "data": [{"compound": "FC(F)(F)c1cccc(C2=CCN(CCc3ccc(-c4ccccc4)cc3)CC2)c1", "note": "[paliroden (fumarate salt), 1-[2-(4-biphenylyl)ethyl]-4-(3-trifluoromethylphenyl)-1,2,3,6-tetrahydropyridine]", "values": [{"measurement": "Effect on ABR thresholds, DPOAE amplitudes, ABR Wave I amplitudes", "setting": "male Wistar rats", "value": "did not show effect"}, {"measurement": "Recovery of the ABR Wave I amplitudes", "setting": "male CBA/CaJ mice; 5 weeks post-noise, 16, 25, 32, 40, 45 kHz, paliroden 50 μg/ear one day post-noise", "value": "complete recovery"}, {"measurement": "ABR Wave I amplitude recovery in comparison to traumatized untreated mice, subset analysis", "setting": "male CBA/CaJ mice; 25, 32, 40 and 45 kHz, p values <0.001", "value": "statistically significant"}, {"measurement": "solubility", "setting": "[1]", "value": "< 0.1", "unit": "mg/mL"}]}, {"compound": "FC(F)(F)c1cccc(C2=CCN(CCc3ccc4ccccc4c3)CC2)c1", "note": "[xaliproden (hydrochloride salt), 1-[2-(2-naphthyl)ethyl]-4-(3-trifluoromethylphenyl)-1,2,3,6-tetrahydropyridine]", "values": [{"measurement": "Effect on ABR thresholds, DPOAE amplitudes, ABR Wave I amplitudes", "setting": "male Wistar rats", "value": "did not show effect"}, {"measurement": "solubility", "setting": "[1]", "value": "< 0.1", "unit": "mg/mL"}]}]}
